# Source: patent US11840584B2, “Simple and green method for preparation of acid modified cyclodextrin” (priority 2020, dated 2023)
# Assay: Curcumin retention in curcumin-cyclodextrin inclusion complex solution left standing 10 days
# Assay type: physicochemical
# Details: 10 days at room temperature without shielding from light
row,SMILES,curcumin remained in the solution [%]
1,OC[C@H]1O[C@@H]2O[C@H]3[C@H](O)[C@@H](O)[C@@H](O[C@H]4[C@H](O)[C@@H](O)[C@@H](O[C@H]5[C@H](O)[C@@H](O)[C@@H](O[C@H]6[C@H](O)[C@@H](O)[C@@H](O[C@H]7[C@H](O)[C@@H](O)[C@@H](O[C@H]1[C@H](O)[C@H]2O)O[C@@H]7CO)O[C@@H]6CO)O[C@@H]5CO)O[C@@H]4CO)O[C@@H]3CO [α-cyclodextrin],36.83
2,OC[C@H]1O[C@@H]2O[C@H]3[C@H](O)[C@@H](O)[C@@H](O[C@H]4[C@H](O)[C@@H](O)[C@@H](O[C@H]5[C@H](O)[C@@H](O)[C@@H](O[C@H]6[C@H](O)[C@@H](O)[C@@H](O[C@H]7[C@H](O)[C@@H](O)[C@@H](O[C@H]8[C@H](O)[C@@H](O)[C@@H](O[C@H]1[C@H](O)[C@H]2O)O[C@@H]8CO)O[C@@H]7CO)O[C@@H]6CO)O[C@@H]5CO)O[C@@H]4CO)O[C@@H]3CO [β-cyclodextrin],32.30
3,OC[C@H]1O[C@@H]2O[C@H]3[C@H](O)[C@@H](O)[C@@H](O[C@H]4[C@H](O)[C@@H](O)[C@@H](O[C@H]5[C@H](O)[C@@H](O)[C@@H](O[C@H]6[C@H](O)[C@@H](O)[C@@H](O[C@H]7[C@H](O)[C@@H](O)[C@@H](O[C@H]8[C@H](O)[C@@H](O)[C@@H](O[C@H]9[C@H](O)[C@@H](O)[C@@H](O[C@H]1[C@H](O)[C@H]2O)O[C@@H]9CO)O[C@@H]8CO)O[C@@H]7CO)O[C@@H]6CO)O[C@@H]5CO)O[C@@H]4CO)O[C@@H]3CO [γ-cyclodextrin],21.94
